Measured values from patent US4910225A, “Locally administrable therapeutic composition for inflammatory disease” (Senju Pharmaceutical Co., Ltd., priority 1988, dated 1990).

Columns and labels:
[1] = test system: experimental ophthalmitis induced by bovine serum albumin in white rabbits (ophthalmitis I); assay: Ophthalmitis I: protein, white blood cell count and prostaglandins in anterior chamber aqueous humor; type: in vivo; details: for Prostaglandin in anterior chamber aqueous humor: less than the assay limit; for Protein in anterior chamber aqueous humor / White Blood Cell count in anterior chamber aqueous humor: mean ± SE
Description: (§1) Seventeen male white rabbits weighing about 2 kg were used. They were fed with 80 g of Labo RG-RO (Nippon Agricultural Co., Ltd.) daily and had free access to tap water.
(§2) After 28 days when ophthalmitis I had nearly recovered, 2.5% BSA solution was administered in a dose of 25 mg/ml/kg into the auricular vein to cause ophthalmitis (ophthalmitis II). The severity of ophthalmitis was rated according to the rating scale^(1) of Yamauchi et al., based on the Draize method in which an increased weight given to the internal segment of the eye. Observation was made with a frequency of once in one or two days during the peak period of inflammation and once in three or four days before and after the peak period for ophthalmitis I and 3, 6, 12 and 24 hours after intravenous injection of BSA for ophthalmitis II.
(§3) Gross observation was made on the day after injection of BSA into the vitreous body and with the animals arranged in the decreasing order of severity of ocular inflammation, grouping was carried out in such a manner that the intensity distribution would be uniform over the groups. Thus, a physiological saline group of 7 animals, a 0.1% Compound [I] instillation group of 4 animals and a 0.5% Compound [I] instillation group of 5 animals were provided. After this grouping procedure, the test drugs and saline were respectively instilled into both eyes of the rabbits, 50 μl per dose, 4 times a day. For induction of ophthalmitis II, each drug was instilled into both eyes, 50 μl per dose, immediately after injection of BSA into the auricular vein and at 1-hour intervals thereafter, for a total of 14 times.

[2] = test system: experimental ophthalmitis induced by bovine serum albumin in white rabbits (ophthalmitis II); assay: Ophthalmitis II: protein, white blood cell count and prostaglandins in anterior chamber aqueous humor; type: in vivo; details: for Prostaglandin in anterior chamber aqueous humor: less than the assay limit; for White Blood Cell count in anterior chamber aqueous humor: mean ± SE
Description: as §1, §2, §3

[3] = test system: atropine-resistant miosis; assay: Atropine-resistant miosis after paracentesis; type: in vivo, albino rabbits; details: for Miosis: 10 min after paracentesis
Description: (§4) The solutions of the following formulas were used.
(§5) Totally 28 male albino rabbits (4 rabbits×7 groups) with a body weight of about 2 kg werr used. They had been confirmed, before the experiment, to have mydriatic response to 1% atropine for at least 4 hours.
(§6) 50 μl each of 1% atropine solution was instilled into both eyes of the animals one hour before the 1st paracenthesis, in which approx. 0.2 ml/eye of aqueous humor (primary aqueous humor) was collected. Topical application of 50 μl each of the test drug solutions was conducted 30 min before the paracenthesis. Pupil diameter of each eye was measured with a slide caliper immediately before and 10 min after the paracenthesis. The 2nd paracenthesis was conducted 90 min after the 1st one, in which approx. 0.2 ml/eye of aqueous humor (secondary aqueous humor) was collected.

[4] = test system: protein increase after paracentesis; assay: Protein increase in aqueous humor after paracentesis; type: in vivo, albino rabbits
Description: as §4, §5, §6

[5] = pH and osmolarity of ophthalmic solutions; type: physicochemical

## Nc1c(CC(=O)[O-])cccc1C(=O)c1ccc(Br)cc1.O.[Na+] [Compound [I], Sodium 3-(4-bromobenzoyl)-2-aminophenylacetate monohydrate]
[1]; 0.1% and 0.5%
  Inhibition of prostaglandins in the aqueous humor: substantially complete inhibition of prostaglandins in the aqueous humor
[1]; 0.1%
  Prostaglandin in anterior chamber aqueous humor: < 0.4 ng/mL
  Protein in anterior chamber aqueous humor: 48.7 ± 3.8 mg/Mml
  White Blood Cell count in anterior chamber aqueous humor: 5593 ± 3436 Cells/mm^3
[1]; 0.5%
  Prostaglandin in anterior chamber aqueous humor: < 0.4 ng/mL
  Protein in anterior chamber aqueous humor: 28.4 ± 1.6 mg/Mml
  White Blood Cell count in anterior chamber aqueous humor: 1980 ± 654 Cells/mm^3
[2]; 0.1%
  Prostaglandin in anterior chamber aqueous humor: < 0.4 ng/mL
  White Blood Cell count in anterior chamber aqueous humor: 1489 ± 499 Cells/mm^3
[2]; 0.5%
  Prostaglandin in anterior chamber aqueous humor: < 0.4 ng/mL
  White Blood Cell count in anterior chamber aqueous humor: 1673 ± 277 Cells/mm^3
[3]; Compound [I] 0.0001-0.1%, indomethacin as high as 0.5%
  Inhibitory activity on miosis after paracentesis: dose-related inhibitory activity on miosis after paracentesis
[3]; content 0.0001%
  Inhibition (miosis): 9.2 ± 8.33%
  Miosis: 21.5 ± 1.97%
[3]; content 0.001%
  Inhibition (miosis): 19.7 ± 6.08%
  Miosis: 19.0 ± 1.44%
[3]; content 0.01%
  Inhibition (miosis): 35.2 ± 6.75%
  Miosis: 15.4 ± 1.60%
[3]; content 0.1%
  Inhibition (miosis): 24.9 ± 16.4%
  Miosis: 17.4 ± 3.80%
[4]; 0.01% of Compound [I]
  Effect on protein increase compared with 0.5% indomethacin: equivalent to that of 0.5% indomethacin
[4]; content 0.0001%
  Inhibition (protein increase): 6.3%
[4]; content 0.001%
  Inhibition (protein increase): 26.3%
[4]; content 0.01%
  Inhibition (protein increase): 62.9%
[4]; content 0.1%
  Inhibition (protein increase): 87.8%
[4]; miosis and protein increase after paracentesis
  Anti-inflammatory effect compared with indomethacin: stronger anti-inflammatory effect than indomethacin
[4]; rabbit, in vivo
  Inhibitory activity on protein increase after paracentesis: strong and dose-related inhibitory activity on protein increase after paracenthesis
[5]; 0.1% ophthalmic solution
  Osmolarity of ophthalmic solution: 325 mOsm/kg·H2 O
[5]; 0.5% and 0.1% ophthalmic solutions
  pH value of ophthalmic solutions: 8.11
[5]; 0.5% ophthalmic solution
  Osmolarity of ophthalmic solution: 310 mOsm/kg·H2 O
[5]; Experimental Example 3 solutions 0.1-0.0001%, pH 8.0
  Osmotic pressure: 310 mOsm/Kg.H2 O
